Data as given in PubChem BioAssay AID1963829 (Molecular Pharmacology Branch, DTP, NCI, 2024).

System: 935938-334-R-J1-PDC complex spheroid viability
Assay: Anticancer human tumor 935938-334-R-J1-PDC patient-derived small intestine adenocarcinoma cell line growth inhibition [POLQ]
Conditions: for IC50: curve of first compound; for viability, T/C: stronger effect = lower value
How it was run: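 Three-cell-type spheroids modelling solid tumor plus stroma served as the readout system; POL inhibitors were tested individually and in combination, concentration ranges set by clinical Cmax where known.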

[1] = second compound 0.0316 µM, first compound 0.0316 µM
[2] = second compound 0.0316 µM, first compound 0.1 µM
[3] = second compound 0.0316 µM, first compound 0.316 µM
[4] = second compound 0.0316 µM, first compound 1 µM
[5] = second compound 0.0316 µM, first compound 3.16 µM
[6] = second compound 0.0316 µM, first compound 10 µM
[7] = second compound 0.1 µM, first compound 0.0316 µM
[8] = second compound 0.1 µM, first compound 0.1 µM
[9] = second compound 0.1 µM, first compound 0.316 µM
[10] = second compound 0.1 µM, first compound 1 µM
[11] = second compound 0.1 µM, first compound 3.16 µM
[12] = second compound 0.1 µM, first compound 10 µM
[13] = second compound 0.316 µM, first compound 0.0316 µM
[14] = second compound 0.316 µM, first compound 0.1 µM
[15] = second compound 0.316 µM, first compound 0.316 µM
[16] = second compound 0.316 µM, first compound 1 µM
[17] = second compound 0.316 µM, first compound 3.16 µM
[18] = second compound 0.316 µM, first compound 10 µM
[19] = second compound 1 µM, first compound 0.0316 µM
[20] = second compound 1 µM, first compound 0.1 µM
[21] = second compound 1 µM, first compound 0.316 µM
[22] = second compound 1 µM, first compound 1 µM
[23] = second compound 1 µM, first compound 3.16 µM
[24] = second compound 1 µM, first compound 10 µM
[25] = second compound 3.16 µM, first compound 0.0316 µM
[26] = second compound 3.16 µM, first compound 0.1 µM
[27] = second compound 3.16 µM, first compound 0.316 µM
[28] = second compound 3.16 µM, first compound 1 µM
[29] = second compound 3.16 µM, first compound 3.16 µM
[30] = second compound 3.16 µM, first compound 10 µM
[31] = second compound 10 µM, first compound 0.0316 µM
[32] = second compound 10 µM, first compound 0.1 µM
[33] = second compound 10 µM, first compound 0.316 µM
[34] = second compound 10 µM, first compound 1 µM
[35] = second compound 10 µM, first compound 3.16 µM
[36] = second compound 10 µM, first compound 10 µM
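Further: spheroids exposed to drugs for seven days before viability read.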
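Wherever viability, T/C is given: 100% = DMSO vehicle control wells.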

CC1COCCN1c1cc(-c2ccnn2C)c2ccnc(-c3ccn[nH]3)c2n1 (stereo unspecified) + Cc1cccc(N(C)C(=O)C2C(O)CCN2c2nc(C)cc(C(F)(F)F)c2C#N)c1
IC50 (second compound 0.0316 µM): 0.108 µM | IC50 (second compound 0.1 µM): 0.0978 µM | IC50 (second compound 0.316 µM): 0.107 µM | IC50 (second compound 1 µM): 0.125 µM | IC50 (second compound 3.16 µM): 0.114 µM | IC50 (second compound 10 µM): 0.113 µM | viability, T/C [1]: 93.5% | viability, T/C [2]: 52.1% | viability, T/C [3]: 20.2% | viability, T/C [4]: 17.5% | viability, T/C [5]: 20.1% | viability, T/C [6]: 22% | viability, T/C [7]: 105% | viability, T/C [8]: 48.6% | viability, T/C [9]: 29.4% | viability, T/C [10]: 20.7% | viability, T/C [11]: 18.7% | viability, T/C [12]: 23.3% | viability, T/C [13]: 79.2% | viability, T/C [14]: 51.7% | viability, T/C [15]: 23.6% | viability, T/C [16]: 17.7% | viability, T/C [17]: 18.9% | viability, T/C [18]: 20.8% | viability, T/C [19]: 90.2% | viability, T/C [20]: 54.9% | viability, T/C [21]: 29.8% | viability, T/C [22]: 16.4% | viability, T/C [23]: 21.9% | viability, T/C [24]: 22% | viability, T/C [25]: 83.3% | viability, T/C [26]: 53.4% | viability, T/C [27]: 23.5% | viability, T/C [28]: 17.2% | viability, T/C [29]: 18.5% | viability, T/C [30]: 23% | viability, T/C [31]: 86% | viability, T/C [32]: 51.9% | viability, T/C [33]: 32.1% | viability, T/C [34]: 18.4% | viability, T/C [35]: 22.6% | viability, T/C [36]: 22.8%

COc1cc2cc(C(=O)CCC(=O)O)sc2cc1OC + Cc1cccc(N(C)C(=O)C2C(O)CCN2c2nc(C)cc(C(F)(F)F)c2C#N)c1
IC50 (second compound 0.0316 µM): > 10 µM | IC50 (second compound 0.1 µM): > 10 µM | IC50 (second compound 0.316 µM): > 10 µM | IC50 (second compound 1 µM): > 10 µM | IC50 (second compound 3.16 µM): > 10 µM | IC50 (second compound 10 µM): > 10 µM | viability, T/C [1]: 116% | viability, T/C [2]: 84.3% | viability, T/C [3]: 88.5% | viability, T/C [4]: 83.9% | viability, T/C [5]: 85.1% | viability, T/C [6]: 80.8% | viability, T/C [7]: 100% | viability, T/C [8]: 85.6% | viability, T/C [9]: 92.4% | viability, T/C [10]: 95.7% | viability, T/C [11]: 62.9% | viability, T/C [12]: 81.9% | viability, T/C [13]: 79.7% | viability, T/C [14]: 82.5% | viability, T/C [15]: 68.3% | viability, T/C [16]: 88.9% | viability, T/C [17]: 84.8% | viability, T/C [18]: 93.8% | viability, T/C [19]: 91.7% | viability, T/C [20]: 96.5% | viability, T/C [21]: 103% | viability, T/C [22]: 81.1% | viability, T/C [23]: 74% | viability, T/C [24]: 83.4% | viability, T/C [25]: 82.1% | viability, T/C [26]: 95.6% | viability, T/C [27]: 98.5% | viability, T/C [28]: 95.9% | viability, T/C [29]: 98.2% | viability, T/C [30]: 95.1% | viability, T/C [31]: 135% | viability, T/C [32]: 75.6% | viability, T/C [33]: 96.2% | viability, T/C [34]: 112% | viability, T/C [35]: 114% | viability, T/C [36]: 105%

O=C(Nc1ccc(O)c(NS(=O)(=O)c2ccc(F)cc2)c1)c1ccc(-c2ccccc2)cc1 + COC1C(OC(N)=O)C(O)C(Oc2ccc3c(O)c(NC(=O)c4ccc(O)c(CC=C(C)C)c4)c(=O)oc3c2C)OC1(C)C
IC50 (second compound 0.0316 µM): > 10 µM | IC50 (second compound 0.1 µM): > 10 µM | IC50 (second compound 0.316 µM): > 10 µM | IC50 (second compound 1 µM): > 10 µM | IC50 (second compound 3.16 µM): > 10 µM | IC50 (second compound 10 µM): > 10 µM | viability, T/C [1]: 77.9% | viability, T/C [2]: 134% | viability, T/C [3]: 107% | viability, T/C [4]: 102% | viability, T/C [5]: 89.1% | viability, T/C [6]: 66.7% | viability, T/C [7]: 115% | viability, T/C [8]: 97.3% | viability, T/C [9]: 86.5% | viability, T/C [10]: 97% | viability, T/C [11]: 90.8% | viability, T/C [12]: 72.4% | viability, T/C [13]: 95.3% | viability, T/C [14]: 97.9% | viability, T/C [15]: 102% | viability, T/C [16]: 75.9% | viability, T/C [17]: 93.3% | viability, T/C [18]: 73.6% | viability, T/C [19]: 106% | viability, T/C [20]: 109% | viability, T/C [21]: 96.2% | viability, T/C [22]: 93% | viability, T/C [23]: 116% | viability, T/C [24]: 77% | viability, T/C [25]: 105% | viability, T/C [26]: 93.3% | viability, T/C [27]: 85.2% | viability, T/C [28]: 109% | viability, T/C [29]: 87.6% | viability, T/C [30]: 75.2% | viability, T/C [31]: 145% | viability, T/C [32]: 99.7% | viability, T/C [33]: 128% | viability, T/C [34]: 84.4% | viability, T/C [35]: 97.2% | viability, T/C [36]: 67.6%
